Results taken from publication PMC7582905, “Effect of Disulfide Cyclization of Ultrashort Cationic Lipopeptides on Antimicrobial Activity and Cytotoxicity” (International Journal of Molecular Sciences, 2020).
Read-outs that look alike come from different tables or passages of the source. Where a SMILES comes first, the peptide text is derived from it. Bridges are numbered along the chain shown (N, C = ends). The star is where a group is joined. Palmitoyl = CCCCCCCCCCCCCCCC(=O)*

What was measured:
Type in all cases: cell-based
[1] = test system: Candida albicans ATCC 10231
Procedure: (§1) The Staphylococcus aureus ATCC 25923, Staphylococcus epidermidis ATCC 14990, Escherichia coli ATCC 25922, Pseudomonas aeruginosa ATCC 9027, Candida albicans ATCC 10231, Candida glabrata ATCC 15126, Candida lipolytica PCM 2680-FY, and Candida tropicalis PCM 2709-FY strains were acquired from the Polish Collection of Microorganisms (PCM, Polish Academy of Sciences, Wrocław, Poland) and from the American Type Culture Collection (ATCC). All the strains were stored at −80 °C in Roti-Store cryo vials and before the tests were transferred into fresh Mueller–Hinton broth (MHB, Biocorp, Warsaw, Poland) for bacteria or RPMI-1640 (Sigma-Aldrich, Steinheim, Germany) for fungi and incubated for 24 h at 37 °C. Then, the cultures were seeded on Mueller–Hinton agar (BioMaxima, Lublin, Poland) or Sabouraud dextrose agar (SDA, BioMaxima, Lublin, Poland) plates, respectively, and incubated as just mentioned. These agar cultures were used for further microbiological assays. Cell densities for all assays were adjusted spectrophotometrically (Multiskan GO Microplate Spectrophotometer, Thermo Fisher Scientific, Vantaa, Finland) at 600 and 660 nm for bacteria and fungi, respectively.
(§2) MBECs were determined on 96-well polystyrene flat-bottom plates. For this purpose, 24 h cultures of microorganisms were diluted to obtain final density 5.0 × 10^5 CFU/mL and 2.0 × 10^5 CFU/mL of bacteria and fungi, respectively. Briefly, 100 µL of cell suspension was added into the test plates. After 24 h of incubation at 37 °C the wells were rinsed three times with a phosphate buffer saline (PBS, pH 7.4) to remove non-adherent cells. Subsequently, 100 μL of the test compounds in concentration range (0.5–256 μg/mL) were added to each well. After 24 h of incubation at 37 °C, 20 μL of a cell viability reagent was added (resazurin, 4 g/L; Sigma Aldrich, St. Louis, MO, USA). The MBEC was read after 1 h. The determined values were recorded as the lowest concentration at which the reduction of resazurin (from blue to pink) was lower or equal to 10 ± 0.5% as compared to the positive (100%) and negative (0%) controls. The reduction was monitored by measuring absorbance at 570 nm (reduced) and 600 nm (oxidized) using a microplate spectrophotometer (Multiskan GO Microplate Spectrophotometer, Thermo Fisher Scientific, Vantaa, Finland). All experiments were conducted in triplicate.

[2] = test system: Candida glabrata ATCC 15126
Procedure: as §1, §2

[3] = test system: Candida lipolytica PCM 2680-FY
Procedure: as §1, §2

[4] = test system: Candida tropicalis PCM 2709-FY
Procedure: as §1, §2

[5] = test system: Escherichia coli ATCC 25922
Procedure: as §1, §2

[6] = test system: Pseudomonas aeruginosa ATCC 9027
Procedure: as §1, §2

[7] = test system: Staphylococcus epidermidis ATCC 14990
Procedure: as §1, §2

[8] = test system: human red blood cells (hRBCs); test: Hemolysis assay; conditions: peptide concentration causing 50% hemolysis; 4% (v/v) hRBCs in PBS, 1 h, 37 °C, absorbance 540 nm, triplicate
Procedure: The hemolysis assay was performed by using the method reported previously. Fresh human red blood cells (hRBCs) with anticoagulant (EDTA) were rinsed three times with a PBS by centrifugation at 800× g for 10 min and diluted with PBS. The lipopeptides were serially diluted on a 96-well microtiter polystyrene plate and hRBCs were added up to a final volume of 100 μL. The peptide concentration ranged between 0.5 and 256 μg/mL and the final hRBCs concentration was 4% (v/v). Controls for zero hemolysis (blank) and 100% hemolysis consisted of hRBCs suspended in PBS and 1% of Triton-X 100, respectively. The plate was incubated for 1 h at 37 °C and then centrifuged (800× g, 10 min, 4 °C). Subsequently, the supernatant was […] to new microtiter plates and the absorbance at 540 nm was measured. All experiments were conducted in triplicate. HC50 was calculated using an ic50.tk tool. Protocol of the study received approval from the local Bioethics Committee at the Medical University of Gdańsk (NKBBN/262/2019, approval date: 10 June 2019).

[9] = test system: human cervical adenocarcinoma cell line (HeLa S3); test: MTT assay; conditions: 24 h incubation at 37 °C, six replicates per concentration, repeated at least twice
Procedure: (§3) To assess the cytotoxicity of the test lipopeptides (IC50), the classic MTT assay on 96-well polystyrene plates was performed for human keratinocytes (HaCaT) and human cervical adenocarcinoma cell line (HeLa S3) acquired from the ATCC. The assay utilizes colorimetric determination of the cell metabolic activity and the color intensity reflects the number of live cells that can be measured spectrophotometrically. The cell line was cultured in a Dulbecco’s modified Eagle Medium (Invitrogen) supplemented with 10% fetal bovine serum (v/v), 100 units/mL of penicillin, 100 μg/mL of streptomycin, and 2 mM l-glutamine and was stored at 37 °C in a humidified 5% CO2 incubator. Briefly, a day after plating of 500 cells per well, a series of concentrations (0.1–200 μg/mL) of the test compounds were applied. DMSO was added to the control cells at a final concentration of 1.0% (v/v), which was related to the maximal concentration of the solvent compounds used in the experiment. After 24 h of incubation with the lipopeptides at 37 °C in a humidified 5% CO2 incubator, a medium containing 1 mg/mL of MTT (3-(4,5-dimethylthiazol-2-yl)-2,5-diphenyltetrazolium bromide) was added to the wells up to a final concentration of 0.5 mg/mL. Subsequently, the plates were incubated at 37 °C for 4 h. Then, the medium was removed by suction, and the formazan product was solubilized with DMSO. The background absorbance at 630 nm was subtracted from that at 570 nm for each well (Epoch, BioTek Instruments, Winooski, VT, USA). Six replicates were conducted for each concentration. All experiments were repeated at least twice and the resulting IC50 values were calculated with a GraFit 7 software (v. 7.0, Erithacus, Berkley, CA, USA).

[10] = test system: human keratinocytes (HaCaT); test: MTT assay; conditions: 24 h incubation at 37 °C, six replicates per concentration, repeated at least twice
Procedure: as §3

[11] = 24 h biofilm on polystyrene plates, 24 h exposure at 37 °C, resazurin, triplicate

| Compound | HeLa IC50 [9] [µg/mL] | MBEC C. albicans ([1]; ATCC 10231, 24 h) [µg/mL] | MBEC C. glabrata ([2]; ATCC 15126, 24 h) [µg/mL] | MBEC C. lipolytica ([3]; 24 h) [µg/mL] | MBEC C. tropicalis ([4]; PCM 2709-FY, 24 h) [µg/mL] | MBEC E. coli ([5]; ATCC 25922, 24 h) [µg/mL] | MBEC P. aeruginosa ([6]; ATCC 9027, 24 h) [µg/mL] | MBEC S. epidermidis ([7]; ATCC 14990, 24 h) [µg/mL] | HC50 [8] [µg/mL] | HaCaT IC50 [10] [µg/mL] | MBEC C. albicans [1, 11] [µg/mL] | MBEC C. glabrata [2, 11] [µg/mL] | MBEC C. lipolytica [3, 11] [µg/mL] | MBEC C. tropicalis [4, 11] [µg/mL] | MBEC E. coli [5, 11] [µg/mL] | MBEC P. aeruginosa [6, 11] [µg/mL] | MBEC S. epidermidis [7, 11] [µg/mL] |
| --- | --- | --- | --- | --- | --- | --- | --- | --- | --- | --- | --- | --- | --- | --- | --- | --- | --- |
| CCCCCCCCCCCCCCCC(=O)N[C@H]1CSSC[C@@H](C(N)=O)NC(=O)[C@H](CCCNC(=N)N)NC(=O)[C@H](CCCCN)NC(=O)[C@H](CCCCN)NC(=O)[C@H](CCCCN)NC1=O [C6, C16-CKKKRC-NH2] (Palmitoyl-CKKKRC-NH2; disulfide 1-6) | 30.4 ± 2.5 | 64 | 64 | 16 | 32 | >256 | >256 | 128 | 71.0 ± 6.4 | 45.7 ± 13.5 | – | – | – | – | – | – | – |
| CCCCCCCCCCCCCCCC(=O)N[C@@H](CCCCN)C(=O)N[C@@H](CCCCN)C(=O)N[C@@H](CCCCN)C(=O)N[C@@H](CCCCN)C(N)=O [L2, C16-KKKK-NH2] (Palmitoyl-KKKK-NH2) | 12.8 ± 1.1 | 256 | 256 | 64 | 128 | 64 | >256 | 32 | 105.9 ± 8.0 | 23.5 ± 1.3 | – | – | – | – | – | – | – |
| CCCCCCCCCCCCCCCC(=O)N[C@H]1CSSC[C@@H](C(N)=O)NC(=O)[C@H](CCCCN)NC(=O)[C@H](CCCNC(=N)N)NC(=O)[C@H](CCCCN)NC(=O)[C@H](CCCCN)NC1=O [C5, C16-CKKRKC-NH2] (Palmitoyl-CKKRKC-NH2; disulfide 1-6) | 21.9 ± 4.5 | 64 | 64 | 16 | 32 | 128 | 256 | 64 | 97.0 ± 15.4 | 12.9 ± 4.6 | – | – | – | – | – | – | – |
| CCCCCCCCCCCCCCCC(=O)N[C@H]1CSSC[C@@H](C(N)=O)NC(=O)[C@H](CCCCN)NC(=O)[C@H](CCCCN)NC(=O)[C@H](CCCCN)NC(=O)[C@H](CCCNC(=N)N)NC1=O [C3, C16-CRKKKC-NH2] (Palmitoyl-CRKKKC-NH2; disulfide 1-6) | 38.8 ± 4.4 | 32 | 32 | 16 | 32 | 256 | 256 | 128 | 66.5 ± 14.8 | 36.8 ± 2.7 | – | – | – | – | – | – | – |
| CCCCCCCCCCCCCCCC(=O)N[C@@H](CCCCN)C(=O)N[C@@H](CCCNC(=N)N)C(=O)N[C@@H](CCCCN)C(=O)N[C@@H](CCCCN)C(N)=O [L4, C16-KRKK-NH2] (Palmitoyl-KRKK-NH2) | 3.0 ± 0.6 | 128 | 128 | 32 | 64 | 64 | >256 | 32 | 79.8 ± 9.0 | 4.3 ± 0.9 | – | – | – | – | – | – | – |
| CCCCCCCCCCCCCCCC(=O)N[C@H]1CSSC[C@@H](C(N)=O)NC(=O)[C@H](CCCCN)NC(=O)[C@H](CCCCN)NC(=O)[C@H](CCCCN)NC(=O)[C@H](CCCCN)NC1=O [C2, C16-CKKKKC-NH2] (Palmitoyl-CKKKKC-NH2; disulfide 1-6) | 17.9 ± 2.1 | – | – | – | – | – | – | – | 30.6 ± 1.1 | 26.9 ± 1.9 | 64 | 64 | 16 | 32 | 64 | > 256 | 32 |

More lines, main results first:

| HeLa IC50 [9] [µg/mL] | Compound | MBEC C. albicans ([1]; ATCC 10231, 24 h) [µg/mL] | MBEC C. glabrata ([2]; ATCC 15126, 24 h) [µg/mL] | MBEC C. lipolytica ([3]; 24 h) [µg/mL] | MBEC C. tropicalis ([4]; PCM 2709-FY, 24 h) [µg/mL] | MBEC E. coli ([5]; ATCC 25922, 24 h) [µg/mL] | MBEC P. aeruginosa ([6]; ATCC 9027, 24 h) [µg/mL] | MBEC S. epidermidis ([7]; ATCC 14990, 24 h) [µg/mL] | HC50 [8] [µg/mL] | HaCaT IC50 [10] [µg/mL] | MBEC C. albicans [1, 11] [µg/mL] | MBEC C. glabrata [2, 11] [µg/mL] | MBEC C. lipolytica [3, 11] [µg/mL] | MBEC C. tropicalis [4, 11] [µg/mL] | MBEC E. coli [5, 11] [µg/mL] | MBEC P. aeruginosa [6, 11] [µg/mL] | MBEC S. epidermidis [7, 11] [µg/mL] |
| --- | --- | --- | --- | --- | --- | --- | --- | --- | --- | --- | --- | --- | --- | --- | --- | --- | --- |
| 3.6 ± 0.5 | CCCCCCCCCCCCCCCC(=O)N[C@@H](CCCCN)C(=O)N[C@@H](CCCCN)C(=O)N[C@@H](CCCCN)C(=O)N[C@@H](CCCNC(=N)N)C(N)=O [L6, C16-KKKR-NH2] (Palmitoyl-KKKR-NH2) | 128 | 128 | 32 | 128 | 256 | 256 | 32 | 89.7 ± 2.4 | 7.5 ± 0.8 | – | – | – | – | – | – | – |
| 3.0 ± 0.4 | CCCCCCCCCCCCCCCC(=O)N[C@@H](CCCNC(=N)N)C(=O)N[C@@H](CCCNC(=N)N)C(=O)N[C@@H](CCCCN)C(=O)N[C@@H](CCCCN)C(N)=O [L7, C16-RRKK-NH2] (Palmitoyl-RRKK-NH2) | 64 | 128 | 16 | 64 | 256 | 256 | 64 | 65.4 ± 1.5 | 8.1 ± 1.1 | – | – | – | – | – | – | – |
| 6.2 ± 2.7 | CCCCCCCCCCCCCCCC(=O)N[C@@H](CCCCN)C(=O)N[C@@H](CCCCN)C(=O)N[C@@H](CCCNC(=N)N)C(=O)N[C@@H](CCCCN)C(N)=O [L5, C16-KKRK-NH2] (Palmitoyl-KKRK-NH2) | 256 | 256 | 64 | 128 | 64 | 256 | 32 | 96.7 ± 1.4 | 2.4 ± 0.4 | – | – | – | – | – | – | – |
